This passage reports Ki and Activity results from ChEMBL document CHEMBL4402561, “Discovery of Potent Dual-Tailed Benzenesulfonamide Inhibitors of Human Carbonic Anhydrases Implicated in Glaucoma and in Vivo Profiling of Their Intraocular Pressure-Lowering Action” (J Med Chem, 2020).

Targets include Carbonic anhydrase 1 (Homo sapiens, UniProt P00915); Carbonic anhydrase 2 (Homo sapiens, UniProt P00918); Carbonic anhydrase 4 (Homo sapiens, UniProt P22748); Carbonic anhydrase 7 (Homo sapiens, UniProt P43166).
In a further test the test system is Oryctolagus cuniculus. As to the kind of experiment: Antiglaucoma activity in hypertonic saline solution-induced New Zealand albino rabbit model of ocular hypertension assessed as reduction in intraocular pressure at 1% administered topically to eye measured after 240 mins by pneumotonometric- method. It is filed as functional.

Chain of Carbonic anhydrase 1 (P00915 whole entry): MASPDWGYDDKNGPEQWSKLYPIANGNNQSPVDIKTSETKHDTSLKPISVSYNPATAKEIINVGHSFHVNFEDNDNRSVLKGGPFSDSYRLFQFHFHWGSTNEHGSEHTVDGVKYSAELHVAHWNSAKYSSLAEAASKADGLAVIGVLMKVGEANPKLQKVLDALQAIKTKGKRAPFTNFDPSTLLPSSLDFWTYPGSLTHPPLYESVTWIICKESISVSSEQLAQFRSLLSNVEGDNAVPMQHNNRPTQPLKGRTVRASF
Chain of Carbonic anhydrase 4 (P22748 whole entry): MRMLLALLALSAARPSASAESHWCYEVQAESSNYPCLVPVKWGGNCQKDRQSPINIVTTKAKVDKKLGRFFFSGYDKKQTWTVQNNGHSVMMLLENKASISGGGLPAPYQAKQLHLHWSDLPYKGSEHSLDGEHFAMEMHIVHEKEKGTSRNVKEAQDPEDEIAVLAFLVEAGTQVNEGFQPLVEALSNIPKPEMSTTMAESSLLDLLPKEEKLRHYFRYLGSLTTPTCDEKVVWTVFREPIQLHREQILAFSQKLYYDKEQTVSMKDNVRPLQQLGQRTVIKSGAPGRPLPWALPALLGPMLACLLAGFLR
Chain of Carbonic anhydrase 7 (P43166 whole entry): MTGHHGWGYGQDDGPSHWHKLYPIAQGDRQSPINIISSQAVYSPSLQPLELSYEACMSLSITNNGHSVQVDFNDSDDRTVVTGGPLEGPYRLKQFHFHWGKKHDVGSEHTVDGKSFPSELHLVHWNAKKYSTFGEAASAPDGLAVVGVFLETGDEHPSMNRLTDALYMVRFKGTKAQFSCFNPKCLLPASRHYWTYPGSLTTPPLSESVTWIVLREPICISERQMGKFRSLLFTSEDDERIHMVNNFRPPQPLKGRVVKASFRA
Description for Carbonic anhydrase 1: Inhibition of recombinant human carbonic anhydrase 1 incubated for 6 hrs prior to testing measured for 10 to 100 secs by phenol red-based stopped-flow CO2 hydration assay
Description for Carbonic anhydrase 2: Inhibition of recombinant human carbonic anhydrase 2 incubated for 6 hrs prior to testing measured for 10 to 100 secs by phenol red-based stopped-flow CO2 hydration assay
Description for Carbonic anhydrase 4: Inhibition of recombinant human carbonic anhydrase 4 incubated for 6 hrs prior to testing measured for 10 to 100 secs by phenol red-based stopped-flow CO2 hydration assay
Description for Carbonic anhydrase 7: Inhibition of recombinant human carbonic anhydrase 7 incubated for 6 hrs prior to testing measured for 10 to 100 secs by phenol red-based stopped-flow CO2 hydration assay

In general, Ki refers to the equilibrium dissociation constant of an inhibitor or competing ligand from its target. Low values mean a stronger hold on the target, high ones a looser hold on the target. Regarding `CC(=O)CC(=O)Nc1ccc(S(N)(=O)=O)cc1`, the Ki on Carbonic anhydrase 1 stood at 69.2 nM; at Carbonic anhydrase 2 it was 39.5 nM; at Carbonic anhydrase 4, 885 nM; on Carbonic anhydrase 7 it was 273 nM.
Taken in the same sequence, the figures for `CC(=O)/C(=C\c1ccc(F)cc1Cl)C(=O)Nc1ccc(S(N)(=O)=O)cc1` were 52.7 nM, 5.6 nM, 222 nM and 23.5 nM.
Turning to `CC(=O)/C(=N\Nc1cccc([N+](=O)[O-])c1)C(=O)Nc1ccc(S(N)(=O)=O)cc1`, the Ki is 751 nM at Carbonic anhydrase 1, 71.4 nM at Carbonic anhydrase 2, greater than 10000 nM on Carbonic anhydrase 4 and 792 nM on Carbonic anhydrase 7.
For the molecule `COc1ccc(N/N=C(\C(C)=O)C(=O)Nc2ccc(S(N)(=O)=O)cc2)cc1OC`, the inhibition constant Ki amounted to 59.3 nM at Carbonic anhydrase 1, 5 nM on Carbonic anhydrase 2, 1480 nM at Carbonic anhydrase 4 and 4.4 nM at Carbonic anhydrase 7.
For `NS(=O)(=O)c1ccc(NC(=O)/C(Cl)=N/Nc2ccc(Br)cc2)cc1`, the Ki on Carbonic anhydrase 1 was 926 nM; at Carbonic anhydrase 2 it was 262 nM; on Carbonic anhydrase 4, greater than 10000 nM; on Carbonic anhydrase 7 it was 1030 nM.
Take `CC(=O)/C(=C\c1ccccc1Cl)C(=O)Nc1ccc(S(N)(=O)=O)cc1`: in the test on Oryctolagus cuniculus, the Activity came out at 2 mmHg. The inhibition constant Ki on Carbonic anhydrase 1 came out at 7.3 nM; at Carbonic anhydrase 2, 0.36 nM; on Carbonic anhydrase 4 it was 383 nM; at Carbonic anhydrase 7, 2.9 nM.
As for `CC(=O)/C(=C\c1cccc([N+](=O)[O-])c1)C(=O)Nc1ccc(S(N)(=O)=O)cc1`, the Ki stood at 75.5 nM at Carbonic anhydrase 1, 6.9 nM on Carbonic anhydrase 2, 387 nM on Carbonic anhydrase 4 and 46.3 nM at Carbonic anhydrase 7.
Taken in the same sequence, the figures for `NS(=O)(=O)c1ccc(NC(=O)/C(Cl)=N/Nc2ccc(Cl)cc2)cc1` were 44.1 nM, 3 nM, 907 nM and 6.1 nM.
On to `CC(=O)/C(=N\Nc1ccc(F)cc1)C(=O)Nc1ccc(S(N)(=O)=O)cc1`, for which the Ki at Carbonic anhydrase 1 is 2670 nM; at Carbonic anhydrase 2, 8.1 nM; on Carbonic anhydrase 4, greater than 10000 nM; at Carbonic anhydrase 7 it was 3320 nM.
In the case of `CC(=O)/C(=N\Nc1ccc(C#N)cc1)C(=O)Nc1ccc(S(N)(=O)=O)cc1`, the Ki at Carbonic anhydrase 1 was 513 nM; at Carbonic anhydrase 2 it was 52.2 nM; on Carbonic anhydrase 4, greater than 10000 nM; at Carbonic anhydrase 7, 762 nM.
For the molecule `CC(=O)/C(=C\c1ccccc1)C(=O)Nc1ccc(S(N)(=O)=O)cc1`, the Ki was determined as 68.7 nM at Carbonic anhydrase 1, 4.4 nM on Carbonic anhydrase 2, 958 nM on Carbonic anhydrase 4 and 44.4 nM on Carbonic anhydrase 7.
Turning to `CC(=O)/C(=N\Nc1ccccc1)C(=O)Nc1ccc(S(N)(=O)=O)cc1`, the Ki is 82.2 nM at Carbonic anhydrase 1, 4.3 nM at Carbonic anhydrase 2, greater than 10000 nM at Carbonic anhydrase 4 and 647 nM on Carbonic anhydrase 7.
Taken in the same sequence, the figures for `NS(=O)(=O)c1ccc(NC(=O)/C(Cl)=N/Nc2ccc(F)cc2)cc1` were 296 nM, 34.8 nM, 7380 nM and 46.6 nM.
For the molecule `COc1ccc(N/N=C(\C(C)=O)C(=O)Nc2ccc(S(N)(=O)=O)cc2)cc1`, the Ki at Carbonic anhydrase 1 was 704 nM; on Carbonic anhydrase 2, 273 nM; at Carbonic anhydrase 4 it was greater than 10000 nM; at Carbonic anhydrase 7 it was 3590 nM.
As to `CC(=O)/C(=N\Nc1ccc(Br)cc1)C(=O)Nc1ccc(S(N)(=O)=O)cc1`, the Ki is greater than 10000 nM at Carbonic anhydrase 1, 371 nM on Carbonic anhydrase 2, greater than 10000 nM on Carbonic anhydrase 4 and greater than 10000 nM at Carbonic anhydrase 7.
In the case of `CC(=O)/C(=N\Nc1ccc(Cl)cc1)C(=O)Nc1ccc(S(N)(=O)=O)cc1`, the Ki is 2640 nM at Carbonic anhydrase 1, 5.2 nM on Carbonic anhydrase 2, greater than 10000 nM at Carbonic anhydrase 4 and 1690 nM on Carbonic anhydrase 7.
For `NS(=O)(=O)c1ccc(NC(=O)/C(Cl)=N/Nc2ccccc2)cc1`, the Ki at Carbonic anhydrase 1 is 227 nM; at Carbonic anhydrase 2, 40.6 nM; on Carbonic anhydrase 4, 7360 nM; on Carbonic anhydrase 7, 68.1 nM.
As to `COc1ccc(N/N=C(\Cl)C(=O)Nc2ccc(S(N)(=O)=O)cc2)cc1`, the Ki was found to be 86.1 nM on Carbonic anhydrase 1, 21.1 nM on Carbonic anhydrase 2, 6420 nM at Carbonic anhydrase 4 and 55.2 nM on Carbonic anhydrase 7.
For `CC(=O)/C(=C\c1ccc(Cl)cc1)C(=O)Nc1ccc(S(N)(=O)=O)cc1`, the Activity in the test with Oryctolagus cuniculus is given as 1.3 mmHg. In addition, the Ki on Carbonic anhydrase 1 was 41.1 nM; on Carbonic anhydrase 2, 0.61 nM; at Carbonic anhydrase 4, 145 nM; at Carbonic anhydrase 7, 4.3 nM.
`COc1ccc(/C=C(\C(C)=O)C(=O)Nc2ccc(S(N)(=O)=O)cc2)cc1`: the Activity in the test with Oryctolagus cuniculus was determined as 1.5 mmHg. In addition, the Ki at Carbonic anhydrase 1 is 15.3 nM; at Carbonic anhydrase 2, 0.45 nM; on Carbonic anhydrase 4, 609 nM; at Carbonic anhydrase 7, 3.1 nM.
On to `CC(=O)/C(=C\c1cccs1)C(=O)Nc1ccc(S(N)(=O)=O)cc1`, for which the inhibition constant Ki was 49.1 nM on Carbonic anhydrase 1, 2.9 nM at Carbonic anhydrase 2, 810 nM on Carbonic anhydrase 4 and 5.3 nM at Carbonic anhydrase 7.
